The text below walks through data of patent US12668599B2, “Heterobifunctional compounds and methods of treating disease” (Halda Therapeutics OpCo, Inc., priority 2023, dated 2026).

For data set [1], the system named is T-Rex 293 cell line SC3 cells having increased expression of androgen receptor protein due to exposure to doxycycline. Nature of the data set: Cellular growth inhibition, T-Rex 293 SC3 cells with doxycycline-induced androgen receptor (CellTiter-Glo 2.0, 72 hours). The format is cell-based. As to conditions: GI50 of the top compound in the pair divided by GI50 of the lower compound; T-Rex 293 SC3 cells with doxycycline-induced androgen receptor. Background: ATP-based viability assays read luminescence as a measure of living cells.

For data set [2], the target named is T1, androgen receptor and BRD4 protein (Homo sapiens, UniProt O60885+P10275).
T1 construct: Tumors obtained from the Castrate VCaP Model were lysed; from tissue; host or cells: VCaP tumour xenografts grown in castrated CB17.SCID mice
As to the kind of experiment: Tumor TR-FRET trimer assay on tumors of the PK/PD Castrate VCaP model. The class given is in vivo, CB17.SCID mice. As to conditions: PK/PD Castrate VCaP Tumor Xenograft Model; Compound II-5 and Compound B at the same dose and dosing frequency, FIG. 20. The protocol:
5M VCaP cells were subcutaneously implanted into CB17.SCID mice in 50% Matrigel (Corning). Mice were castrated under anesthesia once tumor volumes reached 100 mm^3. Tumors were then allowed to reach an average of approximately 150 mm^3 before randomization into efficacy arms. Tumors were measured twice weekly for Tumor Growth Inhibition (TGI) calculation. For PK/PD analysis, tumors were allowed to reach an average of 400 mm^3, before dosing the mice with test compound by oral gavage (n=5) for seven days. Mice were sacrificed 24 hours following the final dose, and tumors were harvested for downstream analysis. Plasma samples were collected from all dosed mice 2 hours following the final dose to determine test compound exposure by LC-MS/MS. […] the United States Food and Drug Administration for treatment of prostate cancer ([…]).
Tumors obtained from the Castrate VCaP Model were lysed in Cell Signaling Technology lysis buffer supplemented with protease/phosphatase inhibitors and nuclease. Each tumor was lysed in 10 μL of lysis buffer per mg of tumor and placed in a TissueLyser for 4 minutes at 20 Hz. Each sample was spun down at 16000×g for 10 minutes, the supernatant was removed, and a BCA assay was run to quantify the total protein concentration in each sample. In a white opaque 384 well plate each sample was diluted in supplemented CST lysis buffer to 48 and 24 μg of protein in a total volume of 16 μL. 4 μL of a 1:1 mixture of anti-androgen receptor and anti-BRD4 antibodies with donor and acceptor fluorophores were mixed into each well containing tumor samples. The plate was spun down at 300×g for one minute, placed on a plate shaker at 400 RPM for 10 minutes, spun down at 300×g for one minute, then sealed with a plate seal and stored overnight. Approximately 16 hours after adding antibodies, the plate was read on an Envision plate reader. The ratiometric value of each well was calculated by dividing the acceptor signal by the donor signal and multiplying by 10,000.

Another data set concerns VCaP cells. As to the kind of experiment: Cellular growth inhibition assay for VCaP cells (CellTiter-Glo 2.0, 72 hours). The format is cell-based, human. As to conditions: GI50 of the top compound in the pair divided by GI50 of the lower compound.
Data set [3] is described as follows: Stability analysis of Crystal Form A and Crystal Form B in solvent suspensions (XRPD). The format is physicochemical. As to conditions: suspensions in EtOH, Acetone, Acetonitrile, THF/Heptane at 25° C. and 50° C. for 1 week. The protocol:
The obtained suspensions were stirred at 25° C. and 50° C. for 1 week, respectively. Solid parts (wet cakes) were isolated by centrifugation filtration at […] temperature and investigated by XRPD.

The nature of data set [4]: Stability to storage of crystal form under relative humidity. The class given is physicochemical. As to conditions: 23-25° C., 23% RH to 53% RH, one week.

T1 sequence (P10275 whole entry, other chains not shown): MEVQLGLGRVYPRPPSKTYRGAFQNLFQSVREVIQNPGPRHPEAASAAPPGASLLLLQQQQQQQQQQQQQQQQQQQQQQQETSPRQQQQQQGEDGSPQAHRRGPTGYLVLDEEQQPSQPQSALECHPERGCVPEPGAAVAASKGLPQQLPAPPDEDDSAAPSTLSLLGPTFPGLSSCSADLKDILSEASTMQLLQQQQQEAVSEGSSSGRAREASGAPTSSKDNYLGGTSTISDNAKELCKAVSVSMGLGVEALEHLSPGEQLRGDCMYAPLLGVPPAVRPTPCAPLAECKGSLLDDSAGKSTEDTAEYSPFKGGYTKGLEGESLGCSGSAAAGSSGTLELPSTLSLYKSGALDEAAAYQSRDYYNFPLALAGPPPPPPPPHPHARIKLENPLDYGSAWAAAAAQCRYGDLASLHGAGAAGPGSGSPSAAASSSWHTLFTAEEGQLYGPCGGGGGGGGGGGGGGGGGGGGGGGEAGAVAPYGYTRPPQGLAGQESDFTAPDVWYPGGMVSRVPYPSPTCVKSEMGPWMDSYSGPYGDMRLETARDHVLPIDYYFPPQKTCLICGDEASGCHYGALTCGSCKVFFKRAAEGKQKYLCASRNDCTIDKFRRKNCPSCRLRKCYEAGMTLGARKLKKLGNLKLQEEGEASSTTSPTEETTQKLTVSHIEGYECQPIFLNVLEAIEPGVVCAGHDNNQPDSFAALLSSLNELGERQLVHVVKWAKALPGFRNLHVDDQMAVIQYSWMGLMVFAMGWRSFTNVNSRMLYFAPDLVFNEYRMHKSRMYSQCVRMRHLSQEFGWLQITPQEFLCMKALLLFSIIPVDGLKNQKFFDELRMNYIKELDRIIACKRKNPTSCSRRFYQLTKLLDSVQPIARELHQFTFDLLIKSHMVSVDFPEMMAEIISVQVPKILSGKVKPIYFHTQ

For the compound `Cc1sc2c(c1C)C(c1ccc(OC3CC4(CCN(c5ncc(C(=O)N[C@H]6C(C)(C)[C@H](Oc7ccc(C#N)c(Cl)c7)C6(C)C)cn5)CC4)C3)cc1)=N[C@@H](Cc1ncco1)c1nnc(C)n1-2` [B, reference compound], the “Ratio of GI50's” value in data set [1] was 5.3; in the data set on VCaP cells it was 1.3. Further, in data set [2], the “ternary complex formation between compound, androgen receptor, and BRD4 protein in tumors” value is reported as “observed”.

For the compound `COc1cc(O[C@H]2C(C)(C)[C@H](NC(=O)c3cnc(N4CCC5(CC4)CC(Oc4ccc(C6=N[C@@H](Cc7ncco7)c7nnc(C)n7-c7sc(C)c(C)c76)cc4)C5)nc3)C2(C)C)ccc1C#N` [Compound II-5 in Crystal Form A, N-[(1r,3r)-3-(4-cyano-3-methoxy-phenoxy)-2,2,4,4-tetramethyl-cyclobutyl]-2-[2-[4-[(9S)-4,5,13-trimethyl-9-(oxazol-2-ylmethyl)-3-thia-1,8,11,12-tetrazatricyclo[8.3.0.0^2,6]trideca-2 (6),4,7,10,12-pentaen-7-yl]phenoxy]-7-azaspiro[3.5]nonan-7-yl]pyrimidine-5-carboxamide Crystal Form A], in data set [3], the “relative stability of crystal forms” value is “superior stability”. Besides, in data set [4], the “physical stability of crystalline form on storage” value is on record as “no change in crystalline form was observed”.
